# Measured values as given in ChEMBL document CHEMBL1201862, “PubChem BioAssay data set” (2004).
# Activity calls are given as the source filed them.
# Tests used:
# Melanocortin receptor 4 = Melanocortin receptor 4 (Homo sapiens, UniProt P32245); experiment: inhibitors of MC4R cAMP signaling – cell-based, TR-FRET, biased antagonists, dose response (AID 602298); type: functional;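 further: antagonist potency against agonist-stimulated cAMP production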
# [1] = cAMP pathway inhibition in counterscreen cell line – TR-FRET cAMP detection, counter-screen for MC4R biased antagonist project, dose response (AID 602305); type: functional, cell-based;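 further: U2OS cells stimulated with forskolin near its EC80 as the cAMP inducer; potency is for inhibition of forskolin-stimulated cAMP signaling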
# Beta-lactamase [2] = target: Beta-lactamase (Salmonella choleraesuis (strain SC-B67), UniProt Q5J463)
# Beta Lactamase = Beta Lactamase (Pseudomonas aeruginosa, UniProt Q932Y6);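 further: confirmatory high-throughput screen measuring VIM-2 metallo-beta-lactamase inhibition by epi-absorbance in dose response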
# Beta Lactamase, sequence (Q932Y6 whole entry): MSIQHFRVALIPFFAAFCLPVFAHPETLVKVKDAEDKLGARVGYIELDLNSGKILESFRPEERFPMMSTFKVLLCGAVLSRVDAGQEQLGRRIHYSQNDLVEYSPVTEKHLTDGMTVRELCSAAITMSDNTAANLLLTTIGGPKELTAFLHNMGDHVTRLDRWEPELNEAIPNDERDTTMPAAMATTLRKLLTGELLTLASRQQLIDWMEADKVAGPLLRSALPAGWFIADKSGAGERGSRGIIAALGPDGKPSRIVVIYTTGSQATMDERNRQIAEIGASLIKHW
# Beta-lactamase [3] = target: Beta-lactamase (Pseudomonas aeruginosa, UniProt Q79MP6);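 further: biochemical dose-response test of metallo-beta-lactamase enzyme inhibition, read out by epi-absorbance; purified recombinant IMP-1 metallo-beta-lactamase with nitrocefin as substrate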
# Beta-lactamase (Pseudomonas aeruginosa, UniProt Q79MP6), sequence (Q79MP6 whole entry): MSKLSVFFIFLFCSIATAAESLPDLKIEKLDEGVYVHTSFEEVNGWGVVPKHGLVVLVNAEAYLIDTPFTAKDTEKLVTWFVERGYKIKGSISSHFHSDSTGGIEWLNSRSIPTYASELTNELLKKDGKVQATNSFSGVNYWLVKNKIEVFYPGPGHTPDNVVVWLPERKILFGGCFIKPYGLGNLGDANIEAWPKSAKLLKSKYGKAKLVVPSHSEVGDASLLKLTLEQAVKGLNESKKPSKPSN
# Protein RecA = target: T1, Protein RecA (Mycobacterium tuberculosis, UniProt P9WHJ3); experiment: Fluorescence Cell-Free Homogeneous Dose Retest to Identify Inhibitors of RecA-Intein Splicing Activity. [Related pubchem assays (depositor defined):AID2097, AID2223, AID489010, AID492950]; type: functional
# T1 sequence (P9WHJ3 whole entry): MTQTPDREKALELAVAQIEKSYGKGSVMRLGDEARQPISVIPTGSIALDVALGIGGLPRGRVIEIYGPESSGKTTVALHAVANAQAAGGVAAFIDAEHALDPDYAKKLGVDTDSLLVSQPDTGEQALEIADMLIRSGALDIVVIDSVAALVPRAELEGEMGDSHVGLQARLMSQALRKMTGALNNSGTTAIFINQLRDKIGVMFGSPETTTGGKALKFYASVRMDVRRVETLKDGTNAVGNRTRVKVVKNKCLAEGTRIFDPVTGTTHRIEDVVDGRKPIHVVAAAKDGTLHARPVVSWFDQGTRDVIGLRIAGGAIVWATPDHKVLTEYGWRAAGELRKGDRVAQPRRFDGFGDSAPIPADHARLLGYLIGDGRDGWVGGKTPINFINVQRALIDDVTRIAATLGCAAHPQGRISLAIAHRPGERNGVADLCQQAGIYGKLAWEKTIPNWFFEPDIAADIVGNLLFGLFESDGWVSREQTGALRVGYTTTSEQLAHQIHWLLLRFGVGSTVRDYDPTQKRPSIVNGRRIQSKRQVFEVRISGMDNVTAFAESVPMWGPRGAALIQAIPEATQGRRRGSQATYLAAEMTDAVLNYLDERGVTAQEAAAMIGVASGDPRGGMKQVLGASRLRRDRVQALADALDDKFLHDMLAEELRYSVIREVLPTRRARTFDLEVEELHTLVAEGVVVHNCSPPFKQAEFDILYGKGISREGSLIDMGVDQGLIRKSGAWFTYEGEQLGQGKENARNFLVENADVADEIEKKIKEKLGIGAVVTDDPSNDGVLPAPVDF
# [4] = target: Mitochondrial peptide methionine sulfoxide reductase (Bos taurus, UniProt P54149); type: functional;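 further: absorbance read-out, biochemical high-throughput dose-response screen for MsrA inhibitors, confirmatory; recombinant bovine MsrA coupled to E. coli TrxB with NADPH and selenocystamine; potency is for inhibitors of MsrA activity on DMSO substrate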
# Mitochondrial peptide methionine sulfoxide reductase, sequence (P54149 whole entry): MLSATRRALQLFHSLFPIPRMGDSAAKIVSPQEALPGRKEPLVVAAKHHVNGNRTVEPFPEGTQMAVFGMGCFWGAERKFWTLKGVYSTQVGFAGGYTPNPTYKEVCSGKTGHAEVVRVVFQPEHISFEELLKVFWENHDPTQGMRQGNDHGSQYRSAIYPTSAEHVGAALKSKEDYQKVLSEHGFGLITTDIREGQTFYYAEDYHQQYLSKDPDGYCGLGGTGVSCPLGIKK
# [5] = target: T2, Replicative DNA helicase DnaB (Mycobacterium tuberculosis, UniProt P9WMR3); experiment: DnaB intein splicing inhibitors, dose response, biochemical, cell-free fluorescence (AID 449749); type: functional
# T2 sequence (P9WMR3 whole entry): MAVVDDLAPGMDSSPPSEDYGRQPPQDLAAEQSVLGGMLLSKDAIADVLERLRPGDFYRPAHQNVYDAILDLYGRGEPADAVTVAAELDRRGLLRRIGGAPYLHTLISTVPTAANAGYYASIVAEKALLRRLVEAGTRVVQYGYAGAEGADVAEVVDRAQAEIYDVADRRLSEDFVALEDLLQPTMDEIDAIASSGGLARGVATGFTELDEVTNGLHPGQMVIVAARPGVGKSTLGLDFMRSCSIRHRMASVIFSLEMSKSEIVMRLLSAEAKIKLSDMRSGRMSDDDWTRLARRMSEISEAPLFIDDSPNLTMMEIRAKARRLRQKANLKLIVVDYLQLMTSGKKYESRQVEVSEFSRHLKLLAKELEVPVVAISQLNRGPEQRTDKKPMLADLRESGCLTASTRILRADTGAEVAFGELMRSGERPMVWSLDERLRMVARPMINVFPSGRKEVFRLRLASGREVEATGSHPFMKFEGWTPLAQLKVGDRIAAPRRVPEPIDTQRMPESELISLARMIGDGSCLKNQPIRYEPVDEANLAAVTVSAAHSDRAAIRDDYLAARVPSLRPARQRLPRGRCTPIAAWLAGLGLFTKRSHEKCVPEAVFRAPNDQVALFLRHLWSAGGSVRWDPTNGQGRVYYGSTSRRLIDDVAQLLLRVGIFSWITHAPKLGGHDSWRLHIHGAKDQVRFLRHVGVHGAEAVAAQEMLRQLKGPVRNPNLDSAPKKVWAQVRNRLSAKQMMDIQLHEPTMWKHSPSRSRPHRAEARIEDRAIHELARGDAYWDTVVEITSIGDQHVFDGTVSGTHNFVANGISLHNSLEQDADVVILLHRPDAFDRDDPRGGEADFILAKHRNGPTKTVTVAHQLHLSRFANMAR
# Vero = experiment: cells; type: functional; settings: Chlorocebus sabaeus
# [6] = target: Hepatocyte nuclear factor 4-alpha (Homo sapiens, UniProt P41235); type: functional, cell-based;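 further: biochemical luminescence-based dose-response counterscreen measuring inhibition of HNF4 dimerization, run alongside a screen for blockers of ABHD5–perilipin-5 interaction; split luciferase complementation of HNF4 fusion proteins in cell lysate measuring dimerization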
# [7] = Luminescence Cell-Based Dose Retest to Confirm Inhibitors of Cancer Stem Cells. [Related pubchem assays (depositor defined):AID2717, AID2721]; type: functional; settings: Homo sapiens
# [8] = target: DNA dC->dU-editing enzyme APOBEC-3A (Homo sapiens, UniProt P31941); experiment: SAR analysis of small molecule inhibitors of APOBEC3A DNA Deaminase via a fluorescence-based single-stranded DNA deaminase assay.; type: functional; settings: read-out: IC50_Mean
# DNA dC->dU-editing enzyme APOBEC-3A, sequence (P31941 whole entry): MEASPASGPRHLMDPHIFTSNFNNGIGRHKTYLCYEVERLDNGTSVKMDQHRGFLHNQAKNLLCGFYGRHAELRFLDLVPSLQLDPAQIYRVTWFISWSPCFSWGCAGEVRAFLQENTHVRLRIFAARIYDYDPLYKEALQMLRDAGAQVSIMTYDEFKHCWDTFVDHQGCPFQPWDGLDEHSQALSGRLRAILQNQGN
# [9] = target: DNA dC->dU-editing enzyme APOBEC-3G (Homo sapiens, UniProt Q9HC16); experiment: inhibition of APOBEC3G ssDNA deamination – biochemical, fluorescence, single-stranded DNA substrate, SAR follow-up (AID 602136); type: functional; settings: read-out: IC50_Mean
# DNA dC->dU-editing enzyme APOBEC-3G, sequence (Q9HC16 whole entry): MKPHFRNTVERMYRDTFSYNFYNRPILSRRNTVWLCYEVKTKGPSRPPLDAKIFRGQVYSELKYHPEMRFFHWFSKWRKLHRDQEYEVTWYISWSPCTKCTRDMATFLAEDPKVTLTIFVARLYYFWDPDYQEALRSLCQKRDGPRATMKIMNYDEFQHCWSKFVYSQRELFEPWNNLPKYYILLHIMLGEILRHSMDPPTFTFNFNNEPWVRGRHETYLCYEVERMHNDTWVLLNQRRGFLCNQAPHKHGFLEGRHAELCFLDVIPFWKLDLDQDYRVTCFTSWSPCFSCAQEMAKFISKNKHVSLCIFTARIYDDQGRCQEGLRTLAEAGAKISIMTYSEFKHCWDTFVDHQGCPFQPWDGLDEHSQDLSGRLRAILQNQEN
# [10] = target: Multidrug resistance protein CDR2 (Candida albicans (strain SC5314 / ATCC MYA-2876) (Yeast), UniProt P78595); experiment: blockers of Nile Red efflux by Candida CDR2 – S. cerevisiae AD1-8u, singleplex, Cherry Pick2 set, dose response (AID 623994); type: functional; settings: read-out: EC50_MICROM
# [11] = Luminescence Cell-Based Dose Confirmation HTS to Identify Activators of 5'UTR Stem-Loop Driven Alpha-Synuclein mRNA Translation in H4 Neuroglioblastoma Cells. [Related pubchem assays: 1829 (Project Summary), 1814 (Primary HTS)]; type: functional
# H4 = experiment: Luminescence Cell-Based Dose Response HTS to Identify Activators of 5'UTR Stem-Loop Driven Prion Protein mRNA Translation in H4 Neuroglioblastoma Cells. [Related pubchem assays: 1829 (Project Summary), 1814 (Primary HTS)]; type: functional; settings: Homo sapiens
# [12] = Luminescence Cell-Based Dose Response HTS to Identify Activators of Luciferase Translation or Activity in H4 […] Cells. [Related pubchem assays: 1829 (Project Summary), 1814 (Primary HTS)]; type: functional
# [13] = Counterscreen for AddAB inhibitors: absorbance-based bacterial cell-based high throughput dose response assay for inhibitors of bacterial viability. [Related pubchem assays (depositor defined):AID435030, AID449728, AID449731, AID488942, AID488955, AID488956]; type: functional
# [14] = HEK-293T viability loss after treatment – luminescence, T-cell screen hits, cytotoxicity control for TCR NF-kB inhibitor project, dose response (AID 489026); type: functional, cell-based;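 further: cells exposed to compound about 14 hours before the viability readout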
# INS1 = experiment: INS-1E survival protection against cytokine death – cell-based, luminescence, retest, dose response (AID 449756); type: functional; settings: Rattus norvegicus;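 further: cell death triggered by IL-1 beta plus TNF-alpha plus IFN-gamma mixture; protective hits raise ATP signal compared with cytokine alone wells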
# Protein Wnt-3a = Protein Wnt-3a (Mus musculus, UniProt P27467); experiment: antagonism of Wnt3a pathway luciferase reporter – Wnt-LIGHT cells, luminescence, selectivity assay for Gli-SUFU antagonist project, dose response (AID 651570); type: functional; settings: read-out: IC50_Mean;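 further: Wnt-LIGHT reporter cells stimulated with conditioned medium from Wnt3a-producing cells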
# Protein Wnt-3a, sequence (P27467 whole entry): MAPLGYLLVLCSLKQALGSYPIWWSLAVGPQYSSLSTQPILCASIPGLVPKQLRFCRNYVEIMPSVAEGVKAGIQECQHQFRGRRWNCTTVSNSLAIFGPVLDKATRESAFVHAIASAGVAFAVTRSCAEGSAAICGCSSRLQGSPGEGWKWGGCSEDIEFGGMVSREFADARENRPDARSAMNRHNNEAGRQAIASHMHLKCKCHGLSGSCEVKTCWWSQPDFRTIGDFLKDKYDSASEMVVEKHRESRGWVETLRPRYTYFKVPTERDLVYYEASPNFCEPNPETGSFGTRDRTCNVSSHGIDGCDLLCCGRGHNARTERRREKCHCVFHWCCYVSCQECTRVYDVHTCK
# Exodeoxyribonuclease V = Exodeoxyribonuclease V (Escherichia coli (strain K12), UniProt P04993+P07648+P08394); experiment: RecBCD inhibition via phage-restricted bacterial growth – absorbance, V66 E. coli, mutant T4 phage, counter-screen for AddAB inhibitor project, dose response (AID 492957); type: functional, cell-based, Escherichia coli str. K-12 substr. MG1655
# Exodeoxyribonuclease V, sequence (P04993 whole entry): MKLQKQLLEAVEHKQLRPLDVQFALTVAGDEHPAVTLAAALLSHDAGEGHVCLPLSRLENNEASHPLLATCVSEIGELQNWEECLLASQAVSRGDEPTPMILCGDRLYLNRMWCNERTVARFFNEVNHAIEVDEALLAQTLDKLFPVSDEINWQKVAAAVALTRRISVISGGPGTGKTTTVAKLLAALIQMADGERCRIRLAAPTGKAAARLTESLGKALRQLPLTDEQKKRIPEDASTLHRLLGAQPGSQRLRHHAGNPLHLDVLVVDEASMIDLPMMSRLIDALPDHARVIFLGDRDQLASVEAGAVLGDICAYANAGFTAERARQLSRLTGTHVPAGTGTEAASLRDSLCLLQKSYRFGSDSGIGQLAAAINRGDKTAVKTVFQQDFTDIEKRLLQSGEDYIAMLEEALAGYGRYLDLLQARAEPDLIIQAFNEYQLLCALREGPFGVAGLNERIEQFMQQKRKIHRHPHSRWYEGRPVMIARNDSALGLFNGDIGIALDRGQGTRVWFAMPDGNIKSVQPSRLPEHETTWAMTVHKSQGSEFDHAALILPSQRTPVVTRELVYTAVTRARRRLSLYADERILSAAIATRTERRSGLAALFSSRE
# Exodeoxyribonuclease V, sequence (P07648 whole entry): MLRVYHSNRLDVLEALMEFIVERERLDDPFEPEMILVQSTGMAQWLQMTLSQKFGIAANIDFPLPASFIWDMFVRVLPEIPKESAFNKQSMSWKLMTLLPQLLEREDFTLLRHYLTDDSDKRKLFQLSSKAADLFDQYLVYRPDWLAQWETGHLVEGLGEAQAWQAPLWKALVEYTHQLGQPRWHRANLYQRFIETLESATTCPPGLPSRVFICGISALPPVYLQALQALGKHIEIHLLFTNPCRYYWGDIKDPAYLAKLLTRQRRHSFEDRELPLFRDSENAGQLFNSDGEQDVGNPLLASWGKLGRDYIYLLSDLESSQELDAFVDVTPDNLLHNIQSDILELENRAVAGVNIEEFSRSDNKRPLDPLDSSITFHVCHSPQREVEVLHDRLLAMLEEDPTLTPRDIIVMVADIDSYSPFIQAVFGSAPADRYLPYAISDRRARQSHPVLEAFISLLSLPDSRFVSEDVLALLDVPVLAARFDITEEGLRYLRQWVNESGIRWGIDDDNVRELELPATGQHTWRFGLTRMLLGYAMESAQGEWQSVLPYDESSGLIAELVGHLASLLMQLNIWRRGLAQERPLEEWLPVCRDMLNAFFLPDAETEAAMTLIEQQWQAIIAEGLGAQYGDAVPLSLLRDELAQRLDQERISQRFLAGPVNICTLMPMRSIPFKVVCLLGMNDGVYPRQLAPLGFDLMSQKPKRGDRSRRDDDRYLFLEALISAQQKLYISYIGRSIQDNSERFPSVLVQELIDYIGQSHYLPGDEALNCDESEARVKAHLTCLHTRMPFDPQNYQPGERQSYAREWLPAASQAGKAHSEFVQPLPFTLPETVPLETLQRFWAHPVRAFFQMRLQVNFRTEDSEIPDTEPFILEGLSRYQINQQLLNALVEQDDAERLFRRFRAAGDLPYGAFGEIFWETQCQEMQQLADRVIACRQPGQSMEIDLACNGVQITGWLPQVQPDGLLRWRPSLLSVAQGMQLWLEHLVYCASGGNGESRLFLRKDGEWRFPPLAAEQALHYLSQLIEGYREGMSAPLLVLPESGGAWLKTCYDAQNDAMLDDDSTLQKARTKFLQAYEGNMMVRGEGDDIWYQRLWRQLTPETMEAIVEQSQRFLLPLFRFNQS
# Exodeoxyribonuclease V, sequence (P08394 whole entry): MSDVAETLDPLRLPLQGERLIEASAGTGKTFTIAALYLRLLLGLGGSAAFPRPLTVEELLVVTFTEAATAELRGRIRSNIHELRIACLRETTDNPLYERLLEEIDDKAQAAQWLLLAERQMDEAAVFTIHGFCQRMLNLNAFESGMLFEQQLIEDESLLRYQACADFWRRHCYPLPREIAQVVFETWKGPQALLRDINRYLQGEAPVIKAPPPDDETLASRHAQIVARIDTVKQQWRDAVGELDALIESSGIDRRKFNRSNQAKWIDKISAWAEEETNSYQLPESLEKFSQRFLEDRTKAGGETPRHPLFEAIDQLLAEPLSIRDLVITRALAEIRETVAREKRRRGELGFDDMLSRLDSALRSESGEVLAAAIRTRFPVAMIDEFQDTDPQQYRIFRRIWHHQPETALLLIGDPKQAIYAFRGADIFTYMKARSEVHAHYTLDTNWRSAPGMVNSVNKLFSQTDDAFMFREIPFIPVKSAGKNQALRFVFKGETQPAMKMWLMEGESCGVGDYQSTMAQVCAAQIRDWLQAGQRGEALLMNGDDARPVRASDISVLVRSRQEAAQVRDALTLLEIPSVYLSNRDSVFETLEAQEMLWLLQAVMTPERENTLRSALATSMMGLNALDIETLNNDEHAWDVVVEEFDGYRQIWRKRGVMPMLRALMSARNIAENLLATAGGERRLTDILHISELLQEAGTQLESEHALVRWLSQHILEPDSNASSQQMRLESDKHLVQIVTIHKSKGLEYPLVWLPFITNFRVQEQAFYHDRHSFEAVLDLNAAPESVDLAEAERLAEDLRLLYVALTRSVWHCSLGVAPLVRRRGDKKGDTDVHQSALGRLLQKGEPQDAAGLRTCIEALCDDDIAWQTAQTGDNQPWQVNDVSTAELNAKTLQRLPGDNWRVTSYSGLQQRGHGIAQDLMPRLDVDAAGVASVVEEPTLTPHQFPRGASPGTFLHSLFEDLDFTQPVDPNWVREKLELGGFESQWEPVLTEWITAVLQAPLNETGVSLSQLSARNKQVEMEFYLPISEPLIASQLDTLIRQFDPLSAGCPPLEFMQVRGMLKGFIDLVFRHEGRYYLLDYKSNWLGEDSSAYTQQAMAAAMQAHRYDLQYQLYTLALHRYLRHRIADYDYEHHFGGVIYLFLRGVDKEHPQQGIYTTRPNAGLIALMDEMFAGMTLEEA
# Bcl-2-like protein 1 = Bcl-2-like protein 1 (Homo sapiens, UniProt Q07817); experiment: blockers of BCLXL peptide binding – biochemical, fluorescence polarization, 1536-well, selectivity assay for MCL1 inhibitor project, dose response (AID 2218)
# Bcl-2-like protein 1, sequence (Q07817 whole entry): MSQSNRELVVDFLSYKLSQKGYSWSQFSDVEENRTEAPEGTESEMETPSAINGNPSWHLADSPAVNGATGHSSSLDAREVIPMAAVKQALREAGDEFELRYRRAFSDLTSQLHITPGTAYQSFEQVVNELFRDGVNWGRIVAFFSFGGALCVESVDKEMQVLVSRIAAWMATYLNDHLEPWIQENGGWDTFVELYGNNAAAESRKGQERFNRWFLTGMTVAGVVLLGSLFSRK
# [15] = target: DNA (cytosine-5)-methyltransferase 1 (Homo sapiens, UniProt P26358); experiment: inhibition of DNA methylation by DNMT1 – biochemical, fluorescent molecular beacon, confirmation (AID 602386); type: functional
# [16] = target: Induced myeloid leukemia cell differentiation protein Mcl-1 (Homo sapiens, UniProt Q07820); experiment: blockers of MCL1 binding to BIM peptide – biochemical, fluorescence polarization, BIM-BH3 peptide, 1536-well, dose response (AID 2217)
# [17] = target: T3, Small ubiquitin-related modifier 1 (Homo sapiens, UniProt P63165); experiment: SUMO1 protein-protein binding blockers, potency – biochemical, FRET, dose response (AID 624383); type: functional; settings: read-out: IC50_Mean
# T3 sequence (P63165 whole entry): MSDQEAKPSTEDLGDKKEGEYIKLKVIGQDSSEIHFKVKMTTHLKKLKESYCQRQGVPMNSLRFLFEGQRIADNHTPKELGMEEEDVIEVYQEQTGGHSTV
# [18] = target: T3, Small ubiquitin-related modifier 1; experiment: SUMO1 protein interaction blockers, potency – biochemical, fluorescence polarization, uHTS hits, dose response (AID 624382); type: functional; settings: read-out: IC50_Mean
# [19] = target: T4, Apoptotic protease-activating factor 1 (Homo sapiens, UniProt O14727); experiment: SAR analysis of small molecule Activators of Apaf-1 in a Fluorescent assay.; type: functional; settings: read-out: EC50_Mean;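 further: caspase-3 cleavage of fluorogenic Rh110 DEVD substrate downstream of apoptosome activation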
# T4 sequence (O14727 whole entry): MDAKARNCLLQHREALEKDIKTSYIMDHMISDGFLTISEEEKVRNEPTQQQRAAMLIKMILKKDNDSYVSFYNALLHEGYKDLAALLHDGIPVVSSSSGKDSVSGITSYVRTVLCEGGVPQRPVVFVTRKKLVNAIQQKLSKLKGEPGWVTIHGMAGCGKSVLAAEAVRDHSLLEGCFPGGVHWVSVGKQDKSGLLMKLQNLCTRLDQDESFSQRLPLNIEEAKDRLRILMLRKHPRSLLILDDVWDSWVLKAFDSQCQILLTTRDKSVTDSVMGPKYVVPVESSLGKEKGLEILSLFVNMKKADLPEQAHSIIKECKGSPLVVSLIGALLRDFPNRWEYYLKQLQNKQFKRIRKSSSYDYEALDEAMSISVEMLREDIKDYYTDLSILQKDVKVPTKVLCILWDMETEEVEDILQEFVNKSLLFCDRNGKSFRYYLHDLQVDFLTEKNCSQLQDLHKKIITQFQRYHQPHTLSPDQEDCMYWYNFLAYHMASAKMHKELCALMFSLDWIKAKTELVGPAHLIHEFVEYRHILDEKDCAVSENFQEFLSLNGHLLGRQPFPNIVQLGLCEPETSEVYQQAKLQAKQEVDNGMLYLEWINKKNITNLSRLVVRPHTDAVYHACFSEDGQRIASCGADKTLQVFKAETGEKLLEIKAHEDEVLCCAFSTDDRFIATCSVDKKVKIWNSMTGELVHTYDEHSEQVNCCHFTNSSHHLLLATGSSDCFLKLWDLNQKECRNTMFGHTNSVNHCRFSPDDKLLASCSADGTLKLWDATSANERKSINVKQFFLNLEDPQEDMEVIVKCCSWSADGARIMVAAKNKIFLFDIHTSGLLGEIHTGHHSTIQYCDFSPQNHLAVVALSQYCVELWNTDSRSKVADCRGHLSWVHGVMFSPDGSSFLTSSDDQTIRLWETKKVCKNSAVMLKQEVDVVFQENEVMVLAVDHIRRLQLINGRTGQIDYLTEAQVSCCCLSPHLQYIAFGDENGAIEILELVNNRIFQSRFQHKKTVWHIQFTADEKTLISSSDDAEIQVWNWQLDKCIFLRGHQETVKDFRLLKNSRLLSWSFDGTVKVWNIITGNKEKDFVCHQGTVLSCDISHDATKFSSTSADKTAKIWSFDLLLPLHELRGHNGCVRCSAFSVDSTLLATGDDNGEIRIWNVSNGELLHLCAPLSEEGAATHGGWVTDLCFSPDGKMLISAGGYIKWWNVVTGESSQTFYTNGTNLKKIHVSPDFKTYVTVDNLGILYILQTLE
smiles,measurement,setting,value
CN(c1ccc(OCC(=O)OCC(=O)Nc2ccc(Br)cc2)cc1)S(=O)(=O)c1cccs1,IC50,Melanocortin receptor 4,> 64.6 µM (inactive)
same,IC50,[1],> 64.6 µM (inactive)
C/C(=N\O)c1ccc2c3c([nH]c2c1)CCCC3,IC50,Beta-lactamase [2],> 59.6 µM (inactive)
same,IC50,Beta Lactamase,> 59.6 µM (inactive)
same,IC50,Beta-lactamase [3],> 59.6 µM (inactive)
CS/C(=C/[N+](=O)[O-])Nc1cccc2c1C(C)CC2(C)C (stereo not drawn),EC50,Protein RecA,5.21 µM (active)
same,IC50,[4],44.8 µM (inactive)
same,AC50,[5],17.5 µM (active)
Cc1ccc(/C=C/C(=O)c2cc(Br)ccc2OC(=O)c2ccco2)cc1,CC50,Vero,24.4 µM (active)
same,IC50,[6],1.96 µM (active)
same,AC50,[7],4.76 µM (active)
CS(=O)(=O)N1CCC(C(=O)Nc2cc(C(F)(F)F)ccc2N2CCOCC2)CC1,IC50,[8],> 99 µM (inactive)
same,IC50,[9],> 99 µM (inactive)
O=C(Nc1ccccc1)C1=C[C@H](c2ccccc2)C[C@H](OCCCCO)O1,EC50,[10],27.7 µM (active)
same,EC50,[11],11.6 µM (active)
same,EC50,H4,22 µM (active)
same,EC50,[12],9.7 µM (active)
CCOC(=O)c1ccc(NC(=O)Cn2cnc3cc(C)c(C)cc32)cc1,IC50,[13],> 119 µM (inactive)
same,IC50,[14],> 80 µM (inactive)
same,AC50,INS1,4.42 µM (active)
same,IC50,Protein Wnt-3a,0.931 µM (active)
same,IC50,Exodeoxyribonuclease V,> 119 µM (inactive)
CCOc1ccc(NC(=O)c2cccc(-n3cccc3)c2)cc1S(=O)(=O)N1CCOCC1,IC50,Bcl-2-like protein 1,> 109 µM (not active)
same,IC50,[15],9.08 µM (active)
same,IC50,[16],> 4.03 µM (active)
same,IC50,[17],3.29 µM (active)
same,IC50,[18],> 66.6 µM (inactive)
Cc1nn(Cc2ccccc2)c(C)c1CCC(=O)O,EC50,[19],> 100 µM (inactive)
